Assay results published in ChEMBL document CHEMBL5050833, “Novel cyclic trex1 inhibitors” (2020).
pIC50: −log10 of the molar value.

Assays:
[1] = Inhibition of human TREX1 exonuclease activity using labeled DNA oligonucleotide as substrate incubated for 30 mins and measured after 45 mins by fluorescence assay
[2] = Inhibition of mouse TREX1 exonuclease activity using labeled DNA oligonucleotide as substrate incubated for 30 mins and measured after 45 mins by fluorescence assay
Homo sapiens [3] = species: Homo sapiens; test: Binding affinity to recombinant human TREX1 incubated in PBS and measured by thermal shift binding assay; note: test concentration or dose not given here
Homo sapiens [4] = species: Homo sapiens; test: Binding affinity to recombinant human TREX1 incubated in assay buffer and measured by thermal shift binding assay; note: test concentration or dose not given here
Mus musculus [5] = species: Mus musculus; test: Binding affinity to recombinant mouse TREX1 incubated in PBS and measured by thermal shift binding assay; note: test concentration or dose not given here
Mus musculus [6] = species: Mus musculus; test: Binding affinity to recombinant mouse TREX1 incubated in assay buffer and measured by thermal shift binding assay; note: test concentration or dose not given here

| Structure (SMILES) | pIC50 [1] | pIC50 [2] | ΔTm (Homo sapiens [3]) [°C] | ΔTm (Homo sapiens [4]) [°C] | ΔTm (Mus musculus [5]) [°C] | ΔTm (Mus musculus [6]) [°C] | IC50 [2] | IC50 [1] |
| --- | --- | --- | --- | --- | --- | --- | --- | --- |
| N[C@@H]1C[C@H]2C(=O)N([C@H](Cc3ccc(O)cc3)C(=O)NCc3ccc(Cl)c(Cl)c3)CCC(CCc3ccccc3)N2C1 (stereo partly drawn) | > 6.00 | > 6.00 | > 8 | > 8 | 4 | 4 |  |  |
| N[C@@H]1C[C@H]2C(=O)N([C@H](CCc3nnn[nH]3)C(=O)NCc3ccc(Cl)c(Cl)c3)CCC(CCc3ccccc3)N2C1 (stereo partly drawn) | > 6.00 | > 6.00 |  |  |  |  |  |  |
| CC(C)C[C@H](C(=O)NCc1ccc(Cl)c(Cl)c1)N1CCC(CCc2ccccc2)N(CCN)CC1=O (stereo partly drawn) |  |  |  |  |  |  | in the range around 10000 nM | in the range around 1000 nM |
| CC(C)C[C@H](C(=O)N[C@H](C)c1ccccc1)N1CCC(CCc2ccccc2)N2C[C@H](N)C[C@H]2C1=O (stereo partly drawn) |  |  |  |  |  |  | in the range around 10000 nM | in the range around 10000 nM |
| CC(C)C[C@H](C(=O)NS(=O)(=O)c1ccccc1)N1CCC(CCc2ccccc2)N2C[C@H](N)C[C@H]2C1=O (stereo partly drawn) |  |  |  |  |  |  | in the range around 1000 nM | in the range around 1000 nM |
| CC(C)C[C@H](C(=O)NCc1ccc(F)cc1)N1CCC(CCc2ccccc2)N2C[C@H](N)C[C@H]2C1=O (stereo partly drawn) | > 6.00 |  |  |  |  |  | in the range around 1000 nM |  |
| CC(C)C[C@H](C(=O)N[C@@H](C)c1ccccc1)N1CCC(CCc2ccccc2)N2C[C@H](N)C[C@H]2C1=O (stereo partly drawn) |  |  |  |  |  |  | in the range around 10000 nM | in the range around 10000 nM |
| CC(C)C[C@H](C(=O)NCc1ccc(C(F)(F)F)cc1)N1CCC(CCc2ccccc2)N2C[C@H](N)C[C@H]2C1=O (stereo partly drawn) | > 6.00 | > 6.00 |  |  |  |  |  |  |
| Cc1nnc(CC[C@H](C(=O)NCc2ccc(Cl)c(Cl)c2)N2CCC(CCc3ccccc3)N3C[C@H](N)C[C@H]3C2=O)[nH]1 (stereo partly drawn) | > 6.00 | > 6.00 |  |  |  |  |  |  |
| CC(C)C[C@H](C(=O)NCc1cccc(Cl)c1)N1CCC(CCc2ccccc2)N2C[C@H](N)C[C@H]2C1=O (stereo partly drawn) | > 6.00 |  |  |  |  |  | in the range around 1000 nM |  |
| CC(C)C[C@H](C(=O)NCc1ccc(C#N)cc1)N1CCC(CCc2ccccc2)N2C[C@H](N)C[C@H]2C1=O (stereo partly drawn) |  |  |  |  |  |  | in the range around 10000 nM | in the range around 1000 nM |
| N[C@@H]1C[C@H]2C(=O)N([C@H](CCC(=O)O)C(=O)NCc3ccc(C(F)(F)F)cc3)CCC(CCc3ccccc3)N2C1 (stereo in doubt; form 2) |  |  | > 8 | > 8 | 4 | 4 |  |  |
| N[C@@H]1C[C@H]2C(=O)N([C@H](CCC(=O)O)C(=O)NCc3ccc(C(F)(F)F)cc3)CCC(CCc3ccccc3)N2C1 (stereo in doubt; form 1) |  |  |  |  |  |  | in the range around 10000 nM | in the range around 10000 nM |
| CC(C)C[C@H](C(=O)NCc1ccccc1)N1CCC(CCc2ccccc2)N2C[C@H](N)C[C@H]2C1=O (stereo partly drawn) |  |  |  |  |  |  | in the range around 10000 nM | in the range around 1000 nM |

The next lines start with the values.

| pIC50 [1] | pIC50 [2] | ΔTm (Homo sapiens [3]) [°C] | ΔTm (Homo sapiens [4]) [°C] | ΔTm (Mus musculus [5]) [°C] | ΔTm (Mus musculus [6]) [°C] | IC50 [2] | IC50 [1] | Structure (SMILES) |
| --- | --- | --- | --- | --- | --- | --- | --- | --- |
| > 6.00 | > 6.00 | > 8 | > 8 | 4 | 4 |  |  | CC(C)C[C@H](C(=O)NCc1ccc(Cl)c(Cl)c1)N1CCC(CCc2ccccc2)N2C[C@H](N)C[C@H]2C1=O (stereo partly drawn) |
| > 6.00 | > 6.00 | > 8 | > 8 | 4 | 4 |  |  | N[C@@H]1C[C@H]2C(=O)N([C@H](CO)C(=O)NCc3ccc(Cl)c(Cl)c3)CCC(CCc3ccccc3)N2C1 (stereo partly drawn) |
| > 6.00 |  |  |  |  |  | in the range around 1000 nM |  | CC(C)C[C@H](C(=O)NCc1ccc(Cl)cc1)N1CCC(CCc2ccccc2)N2C[C@H](N)C[C@H]2C1=O (stereo partly drawn) |
| > 6.00 |  |  |  |  |  | in the range around 1000 nM |  | CC(C)C[C@H](C(=O)NCc1ccc(Cl)cc1)N1CCC(C[S@+]([O-])c2ccccc2)N2C[C@H](N)C[C@H]2C1=O (stereo partly drawn) |
| > 6.00 |  |  |  |  |  | in the range around 1000 nM |  | CC(C)C[C@H](C(=O)NCc1ccc(Cl)cc1)N1CCC(C[S@@+]([O-])c2ccccc2)N2C[C@H](N)C[C@H]2C1=O (stereo partly drawn) |
|  |  |  |  |  |  | in the range around 10000 nM | in the range around 10000 nM | CC(C)C[C@H](C(=O)NCc1ccc(Cl)c(Cl)c1)N1CCC(C)N2C[C@H](N)C[C@H]2C1=O (stereo partly drawn) |
| > 6.00 | > 6.00 |  |  |  |  |  |  | CC(C)C[C@H](C(=O)NCc1ccc(Cl)c(Cl)c1)N1CCC(CSc2ccccc2)N2C[C@H](N)C[C@H]2C1=O (stereo partly drawn) |
|  |  |  |  |  |  | in the range around 10000 nM | in the range around 1000 nM | CC(C)C[C@H](C(=O)NCc1ccccc1Cl)N1CCC(CCc2ccccc2)N2C[C@H](N)C[C@H]2C1=O (stereo partly drawn) |
|  |  |  | > 8 | > 8 |  |  |  | N[C@@H]1C[C@H]2C(=O)N([C@H](CCC(=O)O)C(=O)NCc3ccc(Cl)c(Cl)c3)CCC(CCc3ccccc3)N2C1 (stereo in doubt; form 2) |
| > 6.00 | > 6.00 |  |  |  |  |  |  | NC(=O)CC[C@H](C(=O)NCc1ccc(Cl)c(Cl)c1)N1CCC(CCc2ccccc2)N2C[C@H](N)C[C@H]2C1=O (stereo partly drawn) |
| > 6.00 | > 6.00 |  |  |  |  |  |  | CC(C)C[C@H](C(=O)NS(=O)(=O)c1ccc(Cl)c(Cl)c1)N1CCC(CCc2ccccc2)N2C[C@H](N)C[C@H]2C1=O (stereo partly drawn) |
| > 6.00 |  |  |  |  |  | in the range around 1000 nM |  | CC(C)C[C@H](C(=O)NCc1ccc(Cl)c(Cl)c1)N1CCC(COc2ccccc2)N2C[C@H](N)C[C@H]2C1=O (stereo partly drawn) |
|  |  |  |  |  |  | in the range around 10000 nM | in the range around 1000 nM | CC(=O)N[C@@H]1C[C@H]2C(=O)N([C@H](CC(C)C)C(=O)NCc3ccc(Cl)c(Cl)c3)CCC(CCc3ccccc3)N2C1 (stereo partly drawn) |
| > 6.00 | > 6.00 |  |  |  |  |  |  | N[C@@H]1C[C@H]2C(=O)N([C@H](CC(=O)O)C(=O)NCc3ccc(Cl)c(Cl)c3)CCC(CCc3ccccc3)N2C1 (stereo partly drawn) |
|  |  |  |  |  |  | in the range around 1000 nM | in the range around 1000 nM | Cc1ccc(CNC(=O)[C@@H](CC(C)C)N2CCC(CCc3ccccc3)N3C[C@H](N)C[C@H]3C2=O)cc1 (stereo partly drawn) |
|  | < 4.00 |  |  |  |  |  | in the range around 10000 nM | CC(C)C[C@H](C(=O)NCc1ccc(Cl)c(Cl)c1)N1CCC(CCc2ccccc2)N2C[C@H](N(C)C)C[C@H]2C1=O (stereo partly drawn) |
| > 6.00 | > 6.00 |  |  |  |  |  |  | N[C@@H]1C[C@H]2C(=O)N([C@H](CCC(=O)O)C(=O)NCc3ccc(Cl)c(Cl)c3)CCC(COc3ccccc3)N2C1 (stereo partly drawn) |
| > 6.00 |  |  |  |  |  | in the range around 1000 nM |  | CC(C)C[C@H](C(=O)NCCc1ccc(Cl)c(Cl)c1)N1CCC(CCc2ccccc2)N2C[C@H](N)C[C@H]2C1=O (stereo partly drawn) |
